This passage reports inhibition results from paper PMC6193938, “Characterization of a novel AICARFT inhibitor which potently elevates ZMP and has anti-tumor activity in murine models” (Scientific Reports, 2018).

Common to all, as to test: CEREP protein kinase assay
Holding throughout (type): biochemical

One assay concerns the target T1, TBK1 (Homo sapiens, UniProt Q9UHD2).
T1 construct: purchased CEREP Panlabs (Eurofins)
T1 sequence (Q9UHD2 1-729): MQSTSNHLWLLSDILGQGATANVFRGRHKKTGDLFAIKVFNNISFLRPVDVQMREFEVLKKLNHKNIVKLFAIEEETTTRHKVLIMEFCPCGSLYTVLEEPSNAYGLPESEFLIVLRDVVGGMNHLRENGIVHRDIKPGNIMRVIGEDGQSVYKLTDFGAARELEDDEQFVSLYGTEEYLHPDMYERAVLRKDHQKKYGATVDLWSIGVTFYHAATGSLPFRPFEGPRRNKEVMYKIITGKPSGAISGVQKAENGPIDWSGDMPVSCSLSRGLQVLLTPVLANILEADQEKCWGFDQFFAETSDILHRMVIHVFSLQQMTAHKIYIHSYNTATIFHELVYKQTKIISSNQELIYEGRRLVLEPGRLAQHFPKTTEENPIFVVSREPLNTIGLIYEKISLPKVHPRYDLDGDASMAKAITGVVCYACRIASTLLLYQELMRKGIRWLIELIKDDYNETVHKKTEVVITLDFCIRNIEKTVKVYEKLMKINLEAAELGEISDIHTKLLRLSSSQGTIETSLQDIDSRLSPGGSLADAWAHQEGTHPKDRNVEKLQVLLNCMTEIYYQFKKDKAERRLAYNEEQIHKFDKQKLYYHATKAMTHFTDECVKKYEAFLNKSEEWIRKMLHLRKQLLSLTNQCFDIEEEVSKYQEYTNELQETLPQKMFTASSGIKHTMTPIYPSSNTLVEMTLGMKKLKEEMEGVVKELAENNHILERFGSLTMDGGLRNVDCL

A further assay deals with T2, MNK2 (Homo sapiens, UniProt Q9HBH9).
T2 construct: purchased CEREP Panlabs (Eurofins)

The next assay addresses T3, PIM1 (Homo sapiens, UniProt P11309).
T3 construct: purchased CEREP Panlabs (Eurofins)

Another assay addresses T4, JNK3 (Homo sapiens, UniProt P53779).
T4 construct: purchased CEREP Panlabs (Eurofins)

T4 sequence (P53779 whole entry): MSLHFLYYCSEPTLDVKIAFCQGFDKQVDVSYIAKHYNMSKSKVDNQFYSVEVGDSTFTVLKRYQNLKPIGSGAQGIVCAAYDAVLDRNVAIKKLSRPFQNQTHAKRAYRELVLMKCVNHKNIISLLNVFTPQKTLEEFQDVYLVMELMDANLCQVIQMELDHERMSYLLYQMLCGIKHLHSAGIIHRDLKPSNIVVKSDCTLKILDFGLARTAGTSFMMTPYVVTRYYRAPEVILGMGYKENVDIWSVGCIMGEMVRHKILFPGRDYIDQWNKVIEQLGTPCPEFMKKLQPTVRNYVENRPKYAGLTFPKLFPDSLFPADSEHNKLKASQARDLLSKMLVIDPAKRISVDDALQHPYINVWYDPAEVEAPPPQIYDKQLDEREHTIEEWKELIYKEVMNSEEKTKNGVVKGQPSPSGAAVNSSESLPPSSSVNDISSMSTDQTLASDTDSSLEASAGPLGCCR
T3 sequence (P11309 whole entry): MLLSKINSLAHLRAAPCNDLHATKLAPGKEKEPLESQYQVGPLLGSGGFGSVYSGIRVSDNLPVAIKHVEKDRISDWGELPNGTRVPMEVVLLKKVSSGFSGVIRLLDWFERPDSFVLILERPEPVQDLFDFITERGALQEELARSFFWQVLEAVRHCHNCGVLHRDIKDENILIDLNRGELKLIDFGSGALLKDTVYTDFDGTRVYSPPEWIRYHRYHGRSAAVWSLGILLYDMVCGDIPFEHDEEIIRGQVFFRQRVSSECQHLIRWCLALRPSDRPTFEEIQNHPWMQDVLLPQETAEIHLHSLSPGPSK
T2 sequence (Q9HBH9 whole entry): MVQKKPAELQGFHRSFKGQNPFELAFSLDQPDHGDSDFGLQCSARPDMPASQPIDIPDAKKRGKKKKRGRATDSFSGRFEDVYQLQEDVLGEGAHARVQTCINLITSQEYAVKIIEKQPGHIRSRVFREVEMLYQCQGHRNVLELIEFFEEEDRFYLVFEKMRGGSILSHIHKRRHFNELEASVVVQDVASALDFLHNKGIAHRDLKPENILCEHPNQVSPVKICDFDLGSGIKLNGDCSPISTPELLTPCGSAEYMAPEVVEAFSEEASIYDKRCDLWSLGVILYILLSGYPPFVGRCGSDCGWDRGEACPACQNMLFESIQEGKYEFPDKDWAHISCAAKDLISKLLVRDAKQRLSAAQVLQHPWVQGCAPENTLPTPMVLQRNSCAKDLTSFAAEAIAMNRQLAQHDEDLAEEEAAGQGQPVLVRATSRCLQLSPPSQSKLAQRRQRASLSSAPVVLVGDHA

As to `O=c1[nH]ccc2cc(F)c(NS(=O)(=O)c3ccc(N4CC[C@@H](O)C4)s3)cc12` [LSN3213128, N-(6-Fluoro-1-oxo-1,2-dihydroisoquinolin-7-yl)-5-[(3R)-3-hydroxypyrrolidin-1-yl]thiophene-2-sulfonamide], the inhibition at 0.2 µM against TBK1 (@ 0.2 uM) was -3.62%; against MNK2 (@ 0.2 uM), -1.93%; at PIM1 (@ 0.2 uM), 7.96%; against JNK3 (@ 0.2 uM), -0.752%. For the same compound, the inhibition at 2 µM against TBK1 (@ 2 uM) is 13.1%; at MNK2 (@ 2 uM), 4.7%; against PIM1 (@ 2 uM), 13.3%; against JNK3 (@ 2 uM), 19.2%. Further, the inhibition at 20 µM stood at 11% at TBK1 (@ 20 uM), 5.92% against MNK2 (@ 20 uM), 26.5% against PIM1 (@ 20 uM) and 76.2% at JNK3 (@ 20 uM).

One may read the inhibition as the relative decrease from the control value, in per cent.
